Assay results as given in paper PMC9016803, “Mitochondria-targeted half-sandwich iridium(III)-Cp*-arylimidazophenanthroline complexes as antiproliferative and bioimaging agents against triple negative breast cancer cells MDA-MB-468” (RSC Advances, 2022).

How the values were obtained:
MDA-MB-468 cells [1] = test: ROS generation, DCFDA staining; format: cell-based; details: positive control
Method: Our results indicated a dose dependent increase in ROS production in the MDA-MB-468 cells treated with IrL1 concentrations 1 μM and 3 μM. The extent of ROS production is indicated by the 2′,7′-dichlorofluorescein (DCF) formed by the deacetylation and subsequent oxidation of 2′,7′-dichlorofluorescin diacetate (DCFDA) through cellular esterases and ROS. […] ROS production was absent in untreated control. However, in the positive control, treated with H2O2, ROS production was high which is ∼99% (Fig. 11).
Colocalization study and ROS generation studies were performed using live cell lines in their log phase.

MDA-MB-468 cells [2] = test: MTT in vitro cytotoxicity assay, triple negative breast cancer cells; format: cell-based; details: MDA-MB-468, MTT, 48 h
Method: The in vitro cytotoxicity of complexes IrL1–IrL5 and cisplatin were investigated using the typical 3-(4,5-dimethylthiazol-2-yl)-2,5-diphenyltetrazolium bromide (MTT) assay protocol against a panel of triple negative cancer cell line MDA-MB-468. The cells were initially incubated with the all test compounds at concentrations ranging from 0.5–50 μM for 48 h in vitro.
Cytotoxicity study of all the synthesized compounds against triple negative breast cancer cells MDA-MB-468 and immortalized human keratinocyte cell line HaCaT were done with a drug incubation period of 48 h by following standard procedure that were mentioned in ESI. ^† Preliminary studies were done to understand the mode of action of the complex to induce cytotoxicity using flow cytometric methods.
For doing the cell culture the cells were retained in DMEM media (Gibco), added with 10% fetal bovine serum (Himedia, India), 1% penicillin and streptomycin and 1% of Glutmax (Gibco, Thermo Scientific, USA) at 37°C in 5% CO2. When the cells attained 70%-80% confluency they were trypsinized using 0.25% trypsin-EDTA (Thermo Fisher Scientific, […]
In vitro cytotoxicity study was measured by standard MTT assay protocol.1 First the prepared complexes (IrL1-IrL5) were dissolved in 0.1% DMSO followed by dilution with DMEM medium. One cancer cell lines i.e. triple negative breast cancer cells (MDA-MB-468) and one normal cell line i.e. immortalized human keratinocyte cell line (HaCaT) were used for this assay. Approximately 1×10^4 cells per well were cultured in 100 μl of a growth medium in 96-well plates and then incubated under 5% CO2 atmosphere at 37°C temperature. Then the incubated cells were treated with different concentrations of the complexes in the volume of […]. The cisplatin was taken as standard positive control for this experiment. The Cells which were in the control wells, also engaged the same volume of medium containing 0.1% DMSO. After 48 h, the medium was superfluous and cell cultures were again incubated with 100 μL of MTT reagent (1 mg/ml) for 5 h at 37 °C. Then the resultant suspension was kept on micro vibrator for 10 min and the absorbance was recorded at λ = 570 nm in ELISA plate reader. The experiment was also performed in triplicate. The data were represented as the growth inhibition percentage i.e. % growth inhibition = 100 − [(AD × 100)/AB], where AD, measured absorbance in wells which contain samples and AB, measured absorbance for blank wells (cells with a medium and a vehicle). […]

[3] = n-Octanol/water partition coefficient, shake flask method; format: physicochemical
Method: Both hydrophilicity and lipophilicity studies were performed to determine the tumour-inhibiting potential of the metal complexes. These complexes were highly soluble in DMSO and moderately soluble in H2O, MeOH, EtOH and CH3CN. […] The lipophilicity of these complexes was determined by performing an n-octanol/water partition coefficient (log Po/w, where Po/w = the octanol/water partition coefficient) study using the shake flask method (Table 1).[24] The experimental log Po/w values of these complexes were determined to be in the range of 0.27–0.34 (Table 1). […] This change in the electrolytic behaviour of the complexes from 1 : 1 to 1 : 2 can be attributed to the dissociation of the Ir–Cl bond and subsequent aquation of the complexes. […]
n-Octanol–water partition coefficient (log P o/w)9
The log Po/w of the iridium complexes were adhering to shake flask method using the previously published procedure. A known amount of each complex (IrL1-IrL5) was suspended in water (pre-saturated with n-octanol) and shaken for 48 h on an orbital shaker.
To allow the phase separation, the solution was centrifuged for 10 min at 3000 rpm. To obtain the partition coefficient, different ratios (0.5: 1, 1: 1, and 2: 1) of the saturated solutions were shaken with pre-saturated n-octanol for 20 min on an orbital shaker and followed the same procedure. Aliquots of the aqueous and octanol layers were pipetted out separately and the absorbances were measured with UV-Vis spectrophotometer using proper dilution. Each set was performed in triplicate, concentration of the substances in each layer was calculated using the respective molar extinction coefficients and the partition coefficient (log P o/w) values were obtained from the ratio.

Solubility study = format: physicochemical; details: DMSO-10% DMEM medium (1 : 99 v/v, comparable to cell media)
Method: Both hydrophilicity and lipophilicity studies were performed to determine the tumour-inhibiting potential of the metal complexes. These complexes were highly soluble in DMSO and moderately soluble in H2O, MeOH, EtOH and CH3CN. […] The lipophilicity of these complexes was determined by performing an n-octanol/water partition coefficient (log Po/w, where Po/w = the octanol/water partition coefficient) study using the shake flask method (Table 1).[24] The experimental log Po/w values of these complexes were determined to be in the range of 0.27–0.34 (Table 1). […] This change in the electrolytic behaviour of the complexes from 1 : 1 to 1 : 2 can be attributed to the dissociation of the Ir–Cl bond and subsequent aquation of the complexes.

MDA-MB-468 cells [4] = test: Mitochondrial membrane potential, JC-1 staining, flow cytometry; format: cell-based; details: positive control
Method: The cells treated with the mitochondrial uncoupler CCCP (carbonyl cyanide m-chlorophenylhydrazone), which mediates the dissipation of mitochondrial membrane potential, served as positive control for the detection of mitochondrial dysfunction. […] Unstained control represented in Fig. 10A has been used for gating purposes. […]

For OO [H2O2, reference compound], the ROS production (MDA-MB-468 cells [1]) was about 99%.
In the case of “[Iridium(III)-Cp*-3-(1H-imidazo[4,5-f][1,10]phenanthrolin-2-yl)-4H-chromen-4-one]PF6 [IrL3]”, the IC50 (MDA-MB-468 cells [2]) is reported as 20.3 µM, the “log P (n-octanol/water partition coefficient)” value [3] is reported as −0.23 ± 0.2 and the Solubility (Solubility study) is reported as 1200 µM.
With “[Iridium(III)-Cp*-2-((3aR,7aR)-3a,7a-dihydro-1H-indol-3-yl)-1H-imidazo[4,5-f][1,10]phenanthroline]PF6 [IrL4]” the IC50 (MDA-MB-468 cells [2]) was 5.2 µM, the “log P (n-octanol/water partition coefficient)” value [3] was 0.02 ± 0.05 and the Solubility (Solubility study) was 900 µM.
In the case of “[Iridium(III)-Cp*-2-((3aR,7aR)-3a,7a-dihydrobenzo[b]thiophen-2-yl)-1H-imidazo[4,5-f][1,10]phenanthroline]PF6 [IrL5]”, the IC50 (MDA-MB-468 cells [2]) is reported as 4.41 µM, the “log P (n-octanol/water partition coefficient)” value [3] is reported as 0.29 ± 0.08 and the Solubility (Solubility study) is reported as 700 µM.
For N#CC(C#N)=NNc1cccc(Cl)c1 [CCCP, carbonyl cyanide m-chlorophenylhydrazone, reference compound], the “cells retaining healthy mitochondria (JC-1 aggregates)” value (MDA-MB-468 cells [4]) was about 20% and the “cells with damaged mitochondria (JC-1 monomers)” value (MDA-MB-468 cells [4]) was about 79%.
With “[Iridium(III)-Cp*-2-(anthracen-1-yl)-1H-imidazo[4,5-f][1,10]phenanthroline]PF6 [IrL2]” the IC50 (MDA-MB-468 cells [2]) was 20.4 µM, the “log P (n-octanol/water partition coefficient)” value [3] was 0.34 ± 0.07 and the Solubility (Solubility study) was 600 µM.
